Data from the supplement of paper PMC11451515.

Experiments:
Experiment in all cases: AUC of viability dose-response curve (% viability x log10 dose units); higher = less sensitive
Settings in all cases: 48 h
[1] = system: NOMO1
In short: (§1)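 Leukemia cells adapted to each medium (500 or 1000 cells/well, 1536-well plates) were exposed to library compounds in DMSO for 48 h at 37°C at 11 threefold doses, 47 μM to 0.79 nM. Luminescence by CellTiter-Glo One was normalised per plate to DMSO and cell-free wells, then fitted with a four-parameter log-logistic curve on log10 dose. Curves above full viability were scaled and quality-control failures removed before area under the curve was integrated by trapezoidal rule.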

[2] = system: P12-Ichikawa
In short: as §1

[3] = system: SEM cells
In short: as §1

[4] = RPMI 5 mM glucose + 10% dialyzed FBS

Row | SMILES | AUC of viability dose-response curve ([1]; HPLM + 10% dialyzed FBS) | AUC of viability dose-response curve ([1]; RPMI 5 mM glucose + 10% FBS) | AUC of viability dose-response curve [1, 4] | AUC of viability dose-response curve ([2]; HPLM + 10% dialyzed FBS) | AUC of viability dose-response curve ([2]; RPMI 5 mM glucose + 10% FBS) | AUC of viability dose-response curve [2, 4] | AUC of viability dose-response curve ([3]; HPLM + 10% dialyzed FBS) | AUC of viability dose-response curve ([3]; RPMI 5 mM glucose + 10% FBS) | AUC of viability dose-response curve [3, 4]
1 | ClC1=CC\2=C(NC(=O)\C(=C2N[C@@H]3CN4CCC3CC4)C5=NC6=C([NH]5)C=CC=C6)C=C1 | 286 | 257 | 276 | 302 | 263 | 291 | 211 | 200 | 218
2 | CCN(C(=O)C/1=C(O)/C2=C(C=CC=C2Cl)N(C)C1=O)C3=CC=CC=C3 | 319 | 306 | 328 | 356 | 322 | 308 | 272 | 258 | 250
3 | Cc1csc(NC(=O)c2sc3nc4c(c(C(F)(F)F)c3c2N)CCC4)n1 | 449 | 419 | 441 | 444 | 433 | 394 | 429 | 442 | 420
4 | COC1=CC=C(C=C1O)C/2=C/C(=O)C3=C(O2)C=C(O)C=C3O | 466 | 428 | 437 | 440 | 446 | 381 | 419 | 456 | 456
5 | O=C(O)CCn1c2c(c3ccccc31)C[C@H](N[S+](=O)([O-])c1ccc(F)cc1)CC2 | 458 | 457 | 448 | 465 | 468 | 453 | 471 | 449 | 472
6 | O=C(Nc1ncc(SCCN2CCCC2)s1)[C@]1(c2ccc([S+](=O)([O-])C3CC3)cc2)C[C@H]1C1CCCCC1 | 428 | 451 | 446 | 455 | 459 | 445 | 390 | 461 | 420
7 | COC(=O)C1C2CC3c4[nH]c5cc(OC)ccc5c4CCN3CC2CC(OC(=O)c2cc(OC)c(OC)c(OC)c2)C1OC (stereo not given) | 465 | 454 | 468 | 467 | 471 | 445 | 462 | 459 | 456
8 | CN1c2ccccc2C(=O)N2CCc3c([nH]c4ccccc34)C21 (stereo not given) | 445 | 466 | 434 | 470 | 454 | 451 | 453 | 438 | 459
9 | C=CC(=O)Nc1cccc(Nc2nc(NC3CCC(N(C)C)CC3)nc3c2ncn3C(C)C)c1 (stereo not given) | 348 | 361 | 350 | 366 | 366 | 377 | 319 | 340 | 320
10 | O=C(O)/C=C/c1ccc(O)c(O)c1 | 454 | 453 | 462 | 449 | 447 | 443 | 447 | 423 | 428
